Experimental findings from patent US20240190849A1, “AMINOPYRIMIDINE COMPOUNDS AND METHODS OF THEIR USE” (TYRA BIOSCIENCES, INC., priority 2021, published 2024) are described below.

Structures are written as SMILES. A value given as a limit tells only on which side of the number the result lay.

Common to all, as to details: FGFR binding data
One assay has as its target T1, FGFR3 (Homo sapiens, UniProt P22607).
T1 construct: made in house; host or cells: E. coli derived from BL21, infected with T7 phage
Nature of the assay: Kinase binding assay (kinase-tagged T7 phage, affinity beads, qPCR readout), FGFR3. The essentials: (§1)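 Phage lysate kinase + liganded magnetic beads + compound, 11-pt 3-fold series, 0.9% DMSO; 1 h RT shaking. Wash, elute 30 min with 0.5 μM non-biotinylated ligand; qPCR readout. Hill fit, slope −1 → Kd.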
(In general: In qPCR the cycle at which signal appears reflects the starting amount.)

The target of the next assay is T2, FGFR1 (Homo sapiens, UniProt P11362).
T2 construct: made in house; host or cells: E. coli derived from BL21, infected with T7 phage
Briefly: Kinase binding assay (kinase-tagged T7 phage, affinity beads, qPCR readout), FGFR1. The essentials:
as §1

The target in a further assay is T3, FGFR3 (V555M) (Homo sapiens, UniProt P22607, V555M).
T3 construct: made in house; host or cells: E. coli derived from BL21, infected with T7 phage
Nature of the assay: Kinase binding assay (kinase-tagged T7 phage, affinity beads, qPCR readout), FGFR3 (V555M). The procedure, abridged: as §1

Another assay has as its target T4, FGFR2 (Homo sapiens, UniProt P21802).
T4 construct: made in house; host or cells: E. coli derived from BL21, infected with T7 phage
Briefly: Kinase binding assay (kinase-tagged T7 phage, affinity beads, qPCR readout), FGFR2. The procedure, abridged: as §1

T3 sequence (P22607 23-806 V555M): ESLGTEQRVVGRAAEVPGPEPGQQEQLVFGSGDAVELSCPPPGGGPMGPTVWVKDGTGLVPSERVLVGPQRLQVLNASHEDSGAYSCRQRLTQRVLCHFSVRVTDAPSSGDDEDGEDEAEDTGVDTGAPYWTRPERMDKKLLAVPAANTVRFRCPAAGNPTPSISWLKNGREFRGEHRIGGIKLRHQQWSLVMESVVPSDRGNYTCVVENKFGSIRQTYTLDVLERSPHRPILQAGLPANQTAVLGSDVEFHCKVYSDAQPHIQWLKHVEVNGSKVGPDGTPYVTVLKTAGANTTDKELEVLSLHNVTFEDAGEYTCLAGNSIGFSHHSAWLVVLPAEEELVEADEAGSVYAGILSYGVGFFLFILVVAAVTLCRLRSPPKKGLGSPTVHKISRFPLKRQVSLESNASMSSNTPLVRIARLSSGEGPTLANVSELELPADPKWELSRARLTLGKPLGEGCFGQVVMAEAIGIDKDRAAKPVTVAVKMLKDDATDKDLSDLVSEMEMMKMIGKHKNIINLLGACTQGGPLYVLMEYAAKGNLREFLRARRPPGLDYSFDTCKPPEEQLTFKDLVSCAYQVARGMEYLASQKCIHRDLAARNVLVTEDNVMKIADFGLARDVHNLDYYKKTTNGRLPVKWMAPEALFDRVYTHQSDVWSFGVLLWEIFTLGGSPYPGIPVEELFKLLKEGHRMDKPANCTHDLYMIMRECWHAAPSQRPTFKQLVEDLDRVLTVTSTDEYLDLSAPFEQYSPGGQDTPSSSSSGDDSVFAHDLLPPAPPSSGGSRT
T2 sequence (P11362 22-822): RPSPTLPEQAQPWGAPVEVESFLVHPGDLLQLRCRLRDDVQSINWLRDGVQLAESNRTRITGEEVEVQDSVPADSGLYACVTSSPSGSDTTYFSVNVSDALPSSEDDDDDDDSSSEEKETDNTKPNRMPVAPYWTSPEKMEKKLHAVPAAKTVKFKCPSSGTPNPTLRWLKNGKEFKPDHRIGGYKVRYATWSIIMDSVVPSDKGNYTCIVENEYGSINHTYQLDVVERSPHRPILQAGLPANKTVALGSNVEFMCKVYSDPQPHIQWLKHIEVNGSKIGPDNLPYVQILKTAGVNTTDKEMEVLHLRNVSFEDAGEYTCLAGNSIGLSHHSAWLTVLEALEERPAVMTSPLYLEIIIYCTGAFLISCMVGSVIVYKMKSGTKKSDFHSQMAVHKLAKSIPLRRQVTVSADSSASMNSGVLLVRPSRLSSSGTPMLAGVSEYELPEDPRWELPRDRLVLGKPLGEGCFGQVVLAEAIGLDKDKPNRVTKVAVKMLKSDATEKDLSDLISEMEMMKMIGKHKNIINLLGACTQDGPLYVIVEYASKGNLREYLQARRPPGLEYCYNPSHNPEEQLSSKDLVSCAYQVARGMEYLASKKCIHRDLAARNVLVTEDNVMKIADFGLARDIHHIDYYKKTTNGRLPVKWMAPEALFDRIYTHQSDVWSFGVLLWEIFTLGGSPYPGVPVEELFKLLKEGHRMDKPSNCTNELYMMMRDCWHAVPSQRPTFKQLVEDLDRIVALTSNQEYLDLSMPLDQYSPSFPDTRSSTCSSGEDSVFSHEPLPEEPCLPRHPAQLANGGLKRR
T4 sequence (P21802 22-821): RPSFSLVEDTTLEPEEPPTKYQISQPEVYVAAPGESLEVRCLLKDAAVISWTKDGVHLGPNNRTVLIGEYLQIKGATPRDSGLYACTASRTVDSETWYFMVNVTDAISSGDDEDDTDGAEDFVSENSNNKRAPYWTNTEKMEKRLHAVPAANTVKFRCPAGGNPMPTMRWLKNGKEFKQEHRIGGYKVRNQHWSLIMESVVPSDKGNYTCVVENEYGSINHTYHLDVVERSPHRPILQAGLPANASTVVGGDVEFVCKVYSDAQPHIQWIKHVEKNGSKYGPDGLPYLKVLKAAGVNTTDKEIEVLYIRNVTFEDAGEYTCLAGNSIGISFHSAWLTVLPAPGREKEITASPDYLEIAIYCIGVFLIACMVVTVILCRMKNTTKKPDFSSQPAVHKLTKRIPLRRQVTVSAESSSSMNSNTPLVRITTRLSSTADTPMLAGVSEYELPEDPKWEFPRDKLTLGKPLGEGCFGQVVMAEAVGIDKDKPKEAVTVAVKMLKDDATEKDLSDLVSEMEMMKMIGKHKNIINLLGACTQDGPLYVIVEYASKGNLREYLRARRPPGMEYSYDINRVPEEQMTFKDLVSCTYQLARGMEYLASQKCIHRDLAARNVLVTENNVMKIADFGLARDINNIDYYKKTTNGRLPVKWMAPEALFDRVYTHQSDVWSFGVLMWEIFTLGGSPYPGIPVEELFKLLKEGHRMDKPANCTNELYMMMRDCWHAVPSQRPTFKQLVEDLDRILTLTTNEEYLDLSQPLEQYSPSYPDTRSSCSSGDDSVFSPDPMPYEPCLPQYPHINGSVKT
T1 sequence (P22607 23-806): as the sequence (P22607 23-806 V555M) above, with M533V counted along it

For orientation: Kd means the constant that tells how readily two partners part at equilibrium. `C=C(Cl)C(=O)Nc1cnc2c(c1)c(C)cn2-c1nc(Nc2ccn(C)n2)ncc1C` [Example 116, 2-chloro-N-[3-methyl-1-[5-methyl-2-[(1-methylpyrazol-3-yl)amino]pyrimidin-4-yl]pyrrolo[2,3-b]pyridin-5-yl]prop-2-enamide]: the Kd at FGFR3 lay in the range of 0.1 to 100 nM; on FGFR1 it was 100 to 250 nM; at FGFR3 (V555M), 0.1 to 100 nM; on FGFR2 it was 0.1 to 100 nM.
In the case of `C=C(F)C(=O)Nc1cnc2c(c1)c(C)cn2-c1nc(Nc2ccn(C)n2)ncc1C` [Example 117, 2-fluoro-N-[3-methyl-1-[5-methyl-2-[(1-methylpyrazol-3-yl)amino]pyrimidin-4-yl]pyrrolo[2,3-b]pyridin-5-yl]prop-2-enamide], the dissociation constant (Kd) at FGFR3, on FGFR1, at FGFR3 (V555M) and at FGFR2 was over 1000 nM each time.
Consider `C=C(C)C(=O)Nc1cnc2c(c1)c(C)cn2-c1nc(Nc2ccn(C)n2)ncc1C` [Example 118, 2-methyl-N-[3-methyl-1-[5-methyl-2-[(1-methylpyrazol-3-yl)amino]pyrimidin-4-yl]pyrrolo[2,3-b]pyridin-5-yl]prop-2-enamide], for which the Kd at FGFR3, at FGFR1, on FGFR3 (V555M) and at FGFR2 was over 1000 nM in each case.
`C=CC(=O)Nc1cnc2c(c1)c(C)cn2-c1nc(Nc2ccn(CCO)n2)ncc1C` [Example 119, N-[1-[2-[[1-(2-hydroxyethyl)pyrazol-3-yl]amino]-5-methyl-pyrimidin-4-yl]-3-methyl-pyrrolo[2,3-b]pyridin-5-yl]prop-2-enamide]: the Kd on FGFR3, on FGFR1, at FGFR3 (V555M) and on FGFR2 was 0.1 to 100 nM each time.
As for `C#CC(=O)Nc1ccc2c(c1)c(C)cn2-c1nc(Nc2cnn(CCO)c2)ncc1F` [Example 129, N-[1-[5-fluoro-2-[[1-(2-hydroxyethyl)pyrazol-4-yl]amino]pyrimidin-4-yl]-3-methyl-indol-5-yl]prop-2-ynamide], the Kd on FGFR3, at FGFR1, on FGFR3 (V555M) and on FGFR2 was 0.1 to 100 nM throughout.
For `CC#CC(=O)Nc1ccc2c(c1)c(C)cn2-c1nc(Nc2ccnn2C)ncc1C` [Example 130, N-[3-methyl-1-[5-methyl-2-[(2-methylpyrazol-3-yl)amino]pyrimidin-4-yl]indol-5-yl]but-2-ynamide], the Kd on FGFR3 is over 1000 nM; at FGFR1 it was over 1000 nM; at FGFR3 (V555M) it was 250 to 1000 nM; at FGFR2 it was 250 to 1000 nM.
Regarding `CC#CC(=O)Nc1cnc2c(c1)c(C)cn2-c1nc(Nc2ccnn2C)ncc1C` [Example 131, N-[3-methyl-1-[5-methyl-2-[(2-methylpyrazol-3-yl)amino]pyrimidin-4-yl]pyrrolo[2,3-b]pyridin-5-yl]but-2-ynamide], the Kd at FGFR3, at FGFR1, on FGFR3 (V555M) and on FGFR2 was over 1000 nM each time.
Turning to `C#CC(=O)Nc1cnc2c(c1)c(C)cn2-c1nc(Nc2ccnn2C)ncc1C` [Example 132, N-[3-methyl-1-[5-methyl-2-[(2-methylpyrazol-3-yl)amino]pyrimidin-4-yl]pyrrolo[2,3-b]pyridin-5-yl]prop-2-ynamide], the Kd at FGFR3, on FGFR1, at FGFR3 (V555M) and on FGFR2 was 0.1 to 100 nM in each case.
As for `C#CC(=O)Nc1cnc2c(c1)c(C)cn2-c1nc(Nc2cnn(CCO)c2)ncc1F` [Example 133, N-[1-[5-fluoro-2-[[1-(2-hydroxyethyl)pyrazol-4-yl]amino]pyrimidin-4-yl]-3-methyl-pyrrolo[2,3-b]pyridin-5-yl]prop-2-ynamide], the Kd on FGFR3, on FGFR1, on FGFR3 (V555M) and on FGFR2 was 0.1 to 100 nM in each case.
Consider `CC#CC(=O)Nc1cnc2c(c1)c(C)cn2-c1nc(Nc2ccnn2C)ncc1F` [Example 134, N-[1-[5-fluoro-2-[(2-methylpyrazol-3-yl)amino]pyrimidin-4-yl]-3-methyl-pyrrolo[2,3-b]pyridin-5-yl]but-2-ynamide], for which the Kd on FGFR3, on FGFR1, at FGFR3 (V555M) and at FGFR2 was over 1000 nM in each case.
As to `CC#CC(=O)Nc1ccc2c(-c3nc(Nc4cnn(CCO)c4)ncc3Cl)cn(C)c2c1` [Example 135, N-[3-[5-chloro-2-[[1-(2-hydroxyethyl)pyrazol-4-yl]amino]pyrimidin-4-yl]-1-methyl-indol-6-yl]but-2-ynamide], the Kd on FGFR3 was 100 to 250 nM; on FGFR1, 250 to 1000 nM; at FGFR3 (V555M), 0.1 to 100 nM; at FGFR2, 0.1 to 100 nM.
Regarding `C=CC(=O)Nc1ccc2c(c1)c(C)cn2-c1ccnc(Nc2cnn(CCO)c2)n1` [Example 137, N-[1-[2-[[1-(2-hydroxyethyl)pyrazol-4-yl]amino]pyrimidin-4-yl]-3-methyl-indol-5-yl]prop-2-enamide], the Kd at FGFR3, on FGFR1, at FGFR3 (V555M) and on FGFR2 was 0.1 to 100 nM in each case.
In the case of `C#CC(=O)Nc1ccc2c(c1)c(C)cn2-c1nc(Nc2ccnn2C)ncc1F` [Example 138, N-[1-[5-fluoro-2-[(2-methylpyrazol-3-yl)amino]pyrimidin-4-yl]-3-methyl-indol-5-yl]prop-2-ynamide], the Kd on FGFR3 was in the range of 0.1 to 100 nM; at FGFR1 it was 100 to 250 nM; at FGFR3 (V555M), 0.1 to 100 nM; at FGFR2, 0.1 to 100 nM.
With `CC#CC(=O)Nc1ccc2c(c1)c(C)cn2-c1nc(Nc2ccnn2C)ncc1F` [Example 139, N-[1-[5-fluoro-2-[(2-methylpyrazol-3-yl)amino]pyrimidin-4-yl]-3-methyl-indol-5-yl]but-2-ynamide], the Kd on FGFR3, on FGFR1, at FGFR3 (V555M) and on FGFR2 was over 1000 nM in each case.
With `CC#CC(=O)Nc1ccc2c(c1)c(C)cn2-c1nc(Nc2cnn(CCO)c2)ncc1C` [Example 140, N-[1-[2-[[1-(2-hydroxyethyl)pyrazol-4-yl]amino]-5-methyl-pyrimidin-4-yl]-3-methyl-indol-5-yl]but-2-ynamide], the Kd at FGFR3 fell in the range of 0.1 to 100 nM; on FGFR1, 100 to 250 nM; on FGFR3 (V555M) it was 0.1 to 100 nM; at FGFR2 it was 0.1 to 100 nM.
Turning to `C#CC(=O)Nc1cnc2c(c1)c(C)cn2-c1nc(Nc2cnn(CCO)c2)ncc1C` [Example 141, N-[1-[2-[[1-(2-hydroxyethyl)pyrazol-4-yl]amino]-5-methyl-pyrimidin-4-yl]-3-methyl-pyrrolo[2,3-b]pyridin-5-yl]prop-2-ynamide], the Kd on FGFR3, at FGFR1, at FGFR3 (V555M) and on FGFR2 was 0.1 to 100 nM throughout.
On to `C#CC(=O)Nc1ccc2c(-c3nc(Nc4cnn(CCO)c4)ncc3F)cn(C)c2c1` [Example 142, N-[3-[5-fluoro-2-[[1-(2-hydroxyethyl)pyrazol-4-yl]amino]pyrimidin-4-yl]-1-methyl-indol-6-yl]prop-2-ynamide], for which the Kd on FGFR3, on FGFR1, at FGFR3 (V555M) and at FGFR2 was 0.1 to 100 nM each time.
As to `C#CC(=O)Nc1ccc2c(-c3ccnc(Nc4cnn(CCO)c4)n3)cn(C)c2c1` [Example 143, N-[3-[2-[[1-(2-hydroxyethyl)pyrazol-4-yl]amino]pyrimidin-4-yl]-1-methyl-indol-6-yl]prop-2-ynamide], the Kd on FGFR3, on FGFR1, on FGFR3 (V555M) and on FGFR2 was 0.1 to 100 nM in each case.
For `CC#CC(=O)Nc1ccc2c(-c3ccnc(Nc4cnn(CCO)c4)n3)cn(C)c2c1` [Example 145, N-[3-[2-[[1-(2-hydroxyethyl)pyrazol-4-yl]amino]pyrimidin-4-yl]-1-methyl-indol-6-yl]but-2-ynamide], the Kd at FGFR3 was 250 to 1000 nM; on FGFR1, over 1000 nM; at FGFR3 (V555M), 250 to 1000 nM; on FGFR2, 250 to 1000 nM.
On to `C=CC(=O)N(C)c1ccc2c(c1)c(C)cn2-c1nc(Nc2ccnn2C)ncc1C` [Example 151, N-methyl-N-[3-methyl-1-[5-methyl-2-[(2-methylpyrazol-3-yl)amino]pyrimidin-4-yl]indol-5-yl]prop-2-enamide], for which the Kd at FGFR3, on FGFR1, on FGFR3 (V555M) and at FGFR2 was over 1000 nM throughout.
Take `CC#CC(=O)N(C)c1ccc2c(c1)c(C)cn2-c1nc(Nc2ccnn2C)ncc1C` [Example 152, N-methyl-N-[3-methyl-1-[5-methyl-2-[(2-methylpyrazol-3-yl)amino]pyrimidin-4-yl]indol-5-yl]but-2-ynamide]: the Kd at FGFR3, at FGFR1, on FGFR3 (V555M) and on FGFR2 was over 1000 nM throughout.
Regarding `C=CC(=O)Nc1ccc2c(c1)c(C)cn2-c1nc(Nc2conc2C)ncc1F` [Example 155, N-[1-[5-fluoro-2-[(3-methylisoxazol-4-yl)amino]pyrimidin-4-yl]-3-methyl-indol-5-yl]prop-2-enamide], the Kd lay within 0.1 to 100 nM on FGFR3, 100 to 250 nM on FGFR1, 0.1 to 100 nM at FGFR3 (V555M) and 0.1 to 100 nM at FGFR2.
Consider `C=CC(=O)Nc1ccc2c(c1)c(C)cn2-c1nc(Nc2cccnc2F)ncc1F` [Example 157, N-[1-[5-fluoro-2-[(2-fluoro-3-pyridyl)amino]pyrimidin-4-yl]-3-methyl-indol-5-yl]prop-2-enamide], for which the Kd was in the range of 0.1 to 100 nM at FGFR3, 250 to 1000 nM at FGFR1, 0.1 to 100 nM on FGFR3 (V555M) and 0.1 to 100 nM at FGFR2.
